Read-outs that look alike come from different tables or passages of the source.
Columns and labels:
Mcl-1 protein = Mcl-1 protein (UniProtKB Q07820) (Homo sapiens (Human), UniProt Q07820); assay: Inhibition of Mcl-1 by the fluorescence polarisation assay (Example A, Method A); format: binding; settings: fluorescence polarization assay
In short: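 Protein (5 nM) and fluorescein-tagged peptide tracer (1 nM) incubated with 11-point compound series for 2 h at room temperature in HEPES/NaCl/Tween 20 buffer, pH 7.4, 5% DMSO. Displacement read as decrease in polarisation; IC50 fitted by 4-parameter logistic, converted to Ki (cKi or eKi).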

[1] = system: H929 multiple myeloma tumor line; assay: In vitro cytotoxicity, MTT assay (Example B, Method A); format: cell-based; settings: H929 cells, 48 hours exposure, read-out: C50
Description: The cytotoxicity studies were carried out on the H929 multiple myeloma tumor line.
The cells are distributed onto microplates and exposed to the test compounds for 48 hours. The cell viability is then quantified by a colorimetric assay, the Microculture Tetrazolium Assay (Carmichael et al, Cancer Res. 1987, 47, 939-942).
The results are expressed in C50 which means concentration corresponding to […] of effect/inhibition.

Sequence of Mcl-1 protein (Q07820 whole entry): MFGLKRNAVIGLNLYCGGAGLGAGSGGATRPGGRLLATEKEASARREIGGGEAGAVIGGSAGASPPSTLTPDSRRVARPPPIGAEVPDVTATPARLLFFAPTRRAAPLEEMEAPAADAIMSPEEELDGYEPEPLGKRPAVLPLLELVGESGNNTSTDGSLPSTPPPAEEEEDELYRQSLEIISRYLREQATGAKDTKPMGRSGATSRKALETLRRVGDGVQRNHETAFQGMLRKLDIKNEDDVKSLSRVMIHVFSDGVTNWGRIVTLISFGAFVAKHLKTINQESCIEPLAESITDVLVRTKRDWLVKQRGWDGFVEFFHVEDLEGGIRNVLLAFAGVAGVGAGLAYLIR

| Structure (SMILES) | Ki (Mcl-1 protein) | IC50 ([1]; Homo sapiens, NCI-H929, 48 h) | IC50 [1] |
| --- | --- | --- | --- |
| O=C(O)[C@]1(Nc2cccc(Cl)c2)CC[C@@]2(CC1)c1ccccc1CC2CCCOc1ccnc(F)c1 (mixture of isomers) [Example 427, (1r,4r)-4-(3-chloroanilino)-2′-{3-[(2-fluoropyridin-4-yl)oxy]propyl}-2′,3′-dihydrospiro[cyclohexane-1,1′-indene]-4-carboxylic acid] | 0.226 µM | 17.4 µM | – |
| CC(C)C(COc1ccncc1)CC1Cc2ccccc2[C@]12CC[C@@](Nc1cccc(Cl)c1)(C(=O)O)CC2 (single isomer, unassigned) [Example 535, (1r,4r)-4-(3-chloroanilino)-2′-(3-methyl-2-{[(pyridin-4-yl)oxy]methyl}butyl)-2′,3′-dihydrospiro[cyclohexane-1,1′-indene]-4-carboxylic acid] | 2.28 µM | – | 30 µM |
| O=C(O)[C@]1(Nc2cccc(Br)c2)CC[C@@]2(C=Cc3c(Br)cccc32)CC1 [Example 60, (1r,4r)-4′-bromo-4-(3-bromoanilino)spiro[cyclohexane-1,1′-indene]-4-carboxylic acid] | 0.276 µM | 30 µM | – |
| CC(C)C(COc1ccncc1)CC1Cc2ccccc2[C@]12CC[C@@](Nc1cccc(Cl)c1)(C(=O)O)CC2 (single isomer, unassigned) [Example 533, (1r,4r)-4-(3-chloroanilino)-2′-(3-methyl-2-{[(pyridin-4-yl)oxy]methyl}butyl)-2′,3′-dihydrospiro[cyclohexane-1,1′-indene]-4-carboxylic acid] | 0.785 µM | – | 14.5 µM |
| COc1ccc2c(c1)[C@]1(CC2)CC[C@](Nc2cccc(Br)c2)(C(=O)O)CC1 [Example 61, (1r,4s)-4-(3-bromoanilino)-6′-methoxy-2′,3′-dihydrospiro[cyclohexane-1,1′-indene]-4-carboxylic acid] | 0.358 µM | 30 µM | – |
| C[C@@H](COc1cccnc1)C[C@H]1Cc2ccccc2[C@]12CC[C@@](Nc1cccc(Cl)c1)(C(=O)O)CC2 [Example 568, (1r,2′S,4S)-4-(3-chloroanilino)-2′-{(2R)-2-methyl-3-[(pyridin-3-yl)oxy]propyl}-2′,3′-dihydrospiro[cyclohexane-1,1′-indene]-4-carboxylic acid] | 0.438 µM | 18.3 µM | – |
| Cc1cccc(C2Cc3ccccc3[C@]23CC[C@@](Nc2cccc(Cl)c2)(C(=O)O)CC3)c1 (single isomer, unassigned) [Example 345, (1r,4r)-4-(3-chloroanilino)-2′-(3-methylphenyl)-2′,3′-dihydrospiro[cyclohexane-1,1′-indene]-4-carboxylic acid] | 1.24 µM | 30 µM | – |
| O=C(O)[C@]1(Nc2cccc(Cl)c2)CC[C@@]2(CC1)c1ccccc1C[C@H]2C[C@@H](COc1ccncc1)c1ccccc1 [Example 553, (1r,2′R,4R)-4-(3-chloroanilino)-2′-{(2R)-2-phenyl-3-[(pyridin-4-yl)oxy]propyl}-2′,3′-dihydrospiro[cyclohexane-1,1′-indene]-4-carboxylic acid] | 5.64 µM | 17.5 µM | – |
| C[C@H]1Cc2ccccc2[C@]12CC[C@@](Nc1cccc(Br)c1)(C(=O)O)CC2 [Example 145, (1r,2′S,4S)-4-(3-bromoanilino)-2′-methyl-2′,3′-dihydrospiro[cyclohexane-1,1′-indene]-4-carboxylic acid] | 0.414 µM | 30 µM | – |
| CC(C)C(COc1ccccc1)CC1Cc2ccccc2[C@]12CC[C@@](Nc1cccc(Cl)c1)(C(=O)O)CC2 (single isomer, unassigned) [Example 531, (1r,4r)-4-(3-chloroanilino)-2′-[3-methyl-2-(phenoxymethyl)butyl]-2′,3′-dihydrospiro[cyclohexane-1,1′-indene]-4-carboxylic acid] | 5.97 µM | – | 15.9 µM |
| CC(C)Oc1ccc2c(c1)[C@]1(CC[C@@](Nc3cccc(Cl)c3)(C(=O)O)CC1)C(c1cccc(Oc3ccccc3)c1)C2 (single isomer, unassigned) [Example 387, (1r,4r)-4-(3-chloroanilino)-2′-(3-phenoxyphenyl)-6′-[(propan-2-yl)oxy]-2′,3′-dihydrospiro[cyclohexane-1,1′-indene]-4-carboxylic acid] | 0.22 µM | 9.59 µM | – |
| O=C(O)C1(Nc2cccc(Br)c2)CCC2(CCc3ccccc32)CC1 (centres unmarked) [Example 57, 4-(3-bromoanilino)-2′,3′-dihydrospiro[cyclohexane-1,1′-indene]-4-carboxylic acid] | 0.934 µM | 30 µM | – |
| O=C(O)[C@]1(Nc2cccc(Cl)c2)CC[C@@]2(CC1)c1ccccc1C[C@H]2C[C@H](COc1ccccc1)c1ccccc1 [Example 557, (1r,2′R,4R)-4-(3-chloroanilino)-2′-[(2S)-3-phenoxy-2-phenylpropyl]-2′,3′-dihydrospiro[cyclohexane-1,1′-indene]-4-carboxylic acid] | 1.27 µM | 20.1 µM | – |
| O=C(O)[C@]1(Nc2cccc(Cl)c2)CC[C@@]2(CC1)c1ccccc1C[C@@H]2C[C@@H](COc1cccnc1)c1ccccc1 [Example 548, (1r,2′S,4S)-4-(3-chloroanilino)-2′-{(2R)-2-phenyl-3-[(pyridin-3-yl)oxy]propyl}-2′,3′-dihydrospiro[cyclohexane-1,1′-indene]-4-carboxylic acid] | 0.995 µM | 30 µM | – |
| Cc1cccc(C2Cc3ccccc3[C@]23CC[C@@](Nc2cccc(Cl)c2)(C(=O)O)CC3)c1 (single isomer, unassigned) [Example 346, (1r,4r)-4-(3-chloroanilino)-2′-(3-methylphenyl)-2′,3′-dihydrospiro[cyclohexane-1,1′-indene]-4-carboxylic acid] | 9.29 µM | – | 30 µM |

These reach a lower Ki (Mcl-1 protein). Values come first.

| Ki (Mcl-1 protein) | Structure (SMILES) | IC50 ([1]; Homo sapiens, NCI-H929, 48 h) | IC50 [1] |
| --- | --- | --- | --- |
| 0.0927 µM | C[C@@H](COc1ccncc1C1CC1(C)C)C[C@H]1Cc2ccccc2[C@]12CC[C@@](Nc1cccc(Cl)c1)(C(=O)O)CC2 (stereo partly drawn) [Example 580, (1r,2′S,4S)-4-(3-chloroanilino)-2′-[(2R)-3-{[3-(2,2-dimethylcyclopropyl)pyridin-4-yl]oxy}-2-methylpropyl]-2′,3′-dihydrospiro[cyclohexane-1,1′-indene]-4-carboxylic acid] | 5.12 µM | – |
| 0.15 µM | O=C(O)[C@]1(Nc2cccc(Cl)c2)CC[C@]2(CC1)C(CCCCc1ccccc1)=Cc1ccccc12 [Example 393, (1r,4r)-4-(3-chloroanilino)-2′-(4-phenylbutyl)spiro[cyclohexane-1,1′-indene]-4-carboxylic acid] | 12 µM | – |
| 0.036 µM | CNc1cc(OC[C@H](C)C[C@H]2Cc3ccccc3[C@]23CC[C@@](Nc2cccc(Cl)c2)(C(=O)O)CC3)ccn1 [Example 585, (1r,2′S,4S)-4-(3-chloroanilino)-2′-[(2R)-2-methyl-3-{[2-(methylamino)pyridin-4-yl]oxy}propyl]-2′,3′-dihydrospiro[cyclohexane-1,1′-indene]-4-carboxylic acid] | 2.61 µM | – |
| 0.0697 µM | O=C(O)[C@]1(Nc2cccc(Cl)c2)CC[C@]2(CC1)C(CCOc1ccnc(F)c1)=Cc1ccccc12 [Example 191, (1r,4r)-4-(3-chloroanilino)-2′-{2-[(2-fluoropyridin-4-yl)oxy]ethyl}spiro[cyclohexane-1,1′-indene]-4-carboxylic acid] | 5.72 µM | – |
| 0.033 µM | C[C@@H]1CCc2ncnc(OCCCC3Cc4ccccc4[C@]34CC[C@@](Nc3cccc(Cl)c3)(C(=O)O)CC4)c21 (stereo partly drawn) [Example 472, (1r,4R)-4-(3-chloroanilino)-2′-(3-{[(5R)-5-methyl-6,7-dihydro-5H-cyclopenta[d]pyrimidin-4-yl]oxy}propyl)-2′,3′-dihydrospiro[cyclohexane-1,1′-indene]-4-carboxylic acid] | 5.04 µM | – |
| 0.0622 µM | O=C(O)[C@]1(Nc2cccc(Cl)c2)CC[C@@]2(CC1)c1ccccc1C[C@H]2c1ccc(Oc2ccccc2)cc1 [Example 358, (1r,2′S,4S)-4-(3-chloroanilino)-2′-(4-phenoxyphenyl)-2′,3′-dihydrospiro[cyclohexane-1,1′-indene]-4-carboxylic acid] | 7.43 µM | – |
| 0.182 µM | C[C@@H]1Cc2ccccc2[C@]12CC[C@@](Nc1cccc(Br)c1)(C(=O)O)CC2 [Example 144, (1r,2′R,4R)-4-(3-bromoanilino)-2′-methyl-2′,3′-dihydrospiro[cyclohexane-1,1′-indene]-4-carboxylic acid] | 30 µM | – |
| 0.0448 µM | C[C@@H](COc1ccnc2c1CCCO2)C[C@H]1Cc2ccccc2[C@]12CC[C@@](Nc1cccc(Cl)c1)(C(=O)O)CC2 [Example 635, (1r,2′S,4S)-4-(3-chloroanilino)-2′-{(2R)-3-[(3,4-dihydro-2H-pyrano[2,3-b]pyridin-5-yl)oxy]-2-methylpropyl}-2′,3′-dihydrospiro[cyclohexane-1,1′-indene]-4-carboxylic acid] | 4.59 µM | – |
| 0.0721 µM | Cc1cc2c(OCCC[C@@H]3Cc4ccccc4[C@]34CC[C@@](Nc3cccc(Cl)c3)(C(=O)O)CC4)cccc2[nH]1 [Example 481, (1r,2′R,4R)-4-(3-chloroanilino)-2′-{3-[(2-methyl-1H-indol-4-yl)oxy]propyl}-2′,3′-dihydrospiro[cyclohexane-1,1′-indene]-4-carboxylic acid] | 5.08 µM | – |
| 0.0299 µM | C[C@@H](COc1ncnc2c1C(C)(C)CC2)CC1Cc2ccccc2[C@]12CC[C@@](Nc1cccc(Cl)c1)(C(=O)O)CC2 (stereo partly drawn) [Example 595, (1r,4R)-4-(3-chloroanilino)-2′-{(2R)-3-[(5,5-dimethyl-6,7-dihydro-5H-cyclopenta[d]pyrimidin-4-yl)oxy]-2-methylpropyl}-2′,3′-dihydrospiro[cyclohexane-1,1′-indene]-4-carboxylic acid] | 1.51 µM | – |

Reference: US20240150293A1, “SPIROCYCLOHEXANE DERIVATIVES, PHARMACEUTICAL COMPOSITIONS CONTAINING THEM AND THEIR USES AS ANTI-APOPTOTIC INHIBITORS” (LES LABORATOIRES SERVIER, priority 2021, published 2024)
